For series [1], the system named is MC38 cells. Kind of series: Flow cytometry of MHC Class I H2-Kb surface expression on MC38 cells. Type of series: cell-based, mouse. The procedure:
For analysis of MHC Class I surface expression, cells were seeded into 12 well plates (125,000/well). 24-hours later, cells were treated with the indicated concentrations of HSP90i (NVP-HSP990) or DMSO vehicle. 72-hours after treatment, cells were dissociated with Accumax (Innovative Cell Technologies) and each treatment condition was distributed into 2 wells of a 96 well plate. […] After incubation with antibody, cells were washed 1× in ice cold PBS+10% FBS prior to analysis on a MACSQuant VYB flow cytometer. Cytometric data were plotted and analyzed with FloJo.
For analysis of MHC Class I surface expression, cells were seeded into 12 well plates (125,000/well). 24-hours later, cells were treated with the indicated concentrations of HSP90i (NVP-HSP990) or DMSO vehicle. 72-hours after treatment, cells were dissociated with Accumax (Innovative Cell Technologies) and each treatment condition was distributed into 2 wells of a 96 well plate. […] After incubation with antibody, cells were washed 1× in ice cold PBS+10% FBS prior to analysis on a LSR-2 flow cytometer. Cytometric data were plotted and analyzed with FloJo.
A general note: Flow cytometry measures light scatter and fluorescence of single cells or particles in a stream.

For series [2] the following is noted: cited from earlier work.
For series [3] the following is noted: cited from earlier work. The source holds these as a separate data set.
The subject of a further series is human HSP90. As to conditions: cited from earlier work.
Another series relates to TMK-1 xenografts. As to conditions: 5 mg/kg or 25 mg/kg thrice per week; cited from earlier work.
The test system of another series is tumor growth. Conditions: 25 mg/kg three times a week; cited from earlier work.
A further series relates to TCL1-SCID transplant. Conditions: 10 mg/kg for 16 days; cited from earlier work.
The conditions of series [4]: relative to 17-AAG; cited from earlier work.
The conditions of series [5]: mono-therapy, cited from earlier work.
The subject of the next series is A375 cells. As to conditions: cited from earlier work.
Series [6] addresses HSP90. Conditions: binding to HSP90, same site; cited from earlier work.
Series [7] concerns the target HSP90. Conditions: cited from earlier work.
The subject of series [8] is HSP90. As to conditions: cited from earlier work. The source holds these as a separate data set.
The conditions of series [9]: 10 mg/kg i.v., test animals; cited from earlier work.
Series [10] relates to A375 and A2780 xenografts. Conditions: 60 mg/kg i.v.; cited from earlier work.
In series [11] the test system is HSP90. Conditions: cited from earlier work. This is another data set of the same source.
Series [12] concerns refractory neuroendocrine tumors (NET)s. As to conditions: 42-100 mg/m2 every other day; cited from earlier work.
The test system of series [13] is M229R and 1205LuR xenografts. As to conditions: cited from earlier work.
Series [14] relates to MC38 cells. In words: Immunoblot analysis of MC38 cells. It counts as cell-based, mouse. Conditions: Hsp90i 60 nM or IFN-γ 10 ng/mL. Here is the method:
Protein extraction was performed by washing cells 2× with PBS. A volume of lysis buffer (50 mM Tris pH 7.5, 150 mM NaCl, 1 mM EDTA, 1% Triton-X100, 0.1% SDS, 1× Halt Protease/Phosphatase inhibitor) equal to 1/10 the culture media volume was added directly to the culture dish and incubated for 2-3 min on ice. Lysates were then thoroughly scraped and pipetted into 1.5 mL tubes and incubated for an additional 30 min on ice. Lysates were then cleared by centrifugation at 14,000×g for 15 min and quantified using BCA Assay. Lysates were separated by SDS-PAGE and transferred to 0.2 μm nitrocellulose membranes prior to washing with PBST, blocking with 5% milk in PBST, and incubation with primary antibody overnight at 4° C. All primary antibodies were diluted 1:1000 in 2.5% milk in PBST. Membranes were then washed 4×5 min with PBST and incubated with HRP conjugated secondary antibody at a 1:10,000 dilution in 2.5% milk in PBST, and washed again 4×5 min with PBST. Detection of secondary antibody was performed with SuperSignal West Pico or Femto ECL reagents (Pierce) and digitally imaged on a ChemiDoc (BioRad).
Immunoblotting was performed as described in Example 4. Briefly, protein extraction was performed by washing cells with PBS and then isolating whole cell lysates in lysis buffer (50 mM Tris pH 7.5, 150 mM NaCl, 1 mM EDTA, 1% Triton-X100, 0.1% SDS, 1× Halt Protease/Phosphatase inhibitor) Lysates were then cleared by centrifugation and quantified using BCA Assay. Lysates were separated by SDS-PAGE and transferred to 0.2 μm nitrocellulose membranes prior to washing with PBST, blocking with 5% milk in PBST, and incubation with primary antibody overnight at 4° C. All primary antibodies were diluted 1:1000 in 2.5% milk in PBST. Membranes were then washed and incubated with HRP conjugated secondary antibody. Detection of secondary antibody was performed with SuperSignal West Pico or Femto ECL reagents (Pierce) and digitally imaged on a ChemiDoc (BioRad).
(In general: A western blot detects proteins with antibodies after separation by electrophoresis.)

Where two headings read alike, the source gives them in different places.

With `COc1ccc(C[C@H](NC(=O)[C@H](C)NC(=O)CN2CCOCC2)C(=O)N[C@@H](Cc2ccccc2)C(=O)C2(C)CO2)cc1` (stereo in doubt) [ONX-0914], the “effect on HSP90i-caused increase in MHC Class I surface expression” value in the series on MC38 cells [1] (ONX-0914 500 nM with low level HSP90i) is “abrogated the increase in MHC Class I surface expression”.
With `C=CCNC1=C2C[C@@H](C)C[C@H](OC)[C@H](O)[C@@H](C)/C=C(\C)[C@H](OC(N)=O)[C@@H](OC)/C=C\C=C(/C)C(=O)NC(=CC1=O)C2=O` [17-AAG, 17-Allylamino-17-demethoxy-geldanamycin], the “maximum tolerated dose (MTD)” value in series [2] (IV over 60 minutes on days 1, 4, 8 and 11 of each 21 day cycle) was 150 mg/m^2. The “water solubility (in words)” value in [3] was “not water-soluble”.
The term IC50 denotes the midpoint of a concentration-inhibition curve. Regarding `CO[C@H]1/C=C\C=C(/C)C(=O)NC2=CC(=O)C(NCCN(C)C)=C(C[C@@H](C)C[C@H](OC)[C@H](O)[C@@H](C)/C=C(\C)[C@@H]1OC(N)=O)C2=O.Cl` [17-DMAG, 17-dimethylaminoethylamino-17-demethoxy-geldanamycin], the IC50 in the series with human HSP90 (cell-free assay) is 62 nM. For the same molecule, the “potency against human HSP90 as compared with 17-AAG” value with human HSP90 was around 2 times. The “tumor growth of TMK-1 xenografts” value with TMK-1 xenografts is on record as “significantly reduces tumor growth”. The “tumor growth in mice” value in the series with tumor growth was “significantly suppresses tumor growth”. Moreover, in the series with TCL1-SCID transplant, the survival result is “prolongs the survival” and the “white blood cell count” value was “significantly decreases the white blood cell count”. For the same molecule, in series [4], the “plasma half-life, oral bioavailability, metabolism” value is “longer plasma half-life, greater oral bioavailability, and less extensive metabolism”.
As usually defined, the Kd is the free concentration of one partner at which half of the binding sites on the other are occupied at equilibrium, for simple one-to-one binding. Turning to `CC(C)c1cc(C(=O)N2Cc3ccc(CN4CCN(C)CC4)cc3C2)c(O)cc1O` [AT13387], the results for the tolerated dose in series [5] (once weekly) and in series [5] (twice weekly) were at most 90 mg/kg and “up to 70 mg/kg”, respectively. In addition, the IC50 in the series on A375 cells was 18 nM. Moreover, at HSP90 [6], the Kd was 0.7 nM. Moreover, in series [2] (six doses in a four-week schedule (day 1, 2, 8, 9, 15, 16)), the RP2D is recorded as 160 mg/m2. For the same molecule, the R2PD in series [2] (twice weekly for 3 weeks in a 4-week regimen, diarrhea, nausea, vomiting, fatigue, systemic infusion reactions) is given as 260 mg/m2. In series [2] (twice weekly for 3 weeks in a 4-week regimen, visual disturbances), the MTD is listed as 120 mg/m2.
On to `CCNC(=O)c1noc(-c2cc(C(C)C)c(O)cc2O)c1-c1ccc(CN2CCOCC2)cc1` [AUY922], for which, in series [2] (once weekly intravenous infusion), the maximum tolerated dose is 70 mg/m^2.
As usually defined, the Ki is a dissociation constant, usually derived from enzyme kinetics or from competition with a known ligand. By EC50 is commonly meant the concentration that produces a half-maximal response. Turning to `COc1c(C)cnc(Cn2cnc3c(Cl)nc(N)nc32)c1C` [BIIB021], the MTD in series [2] (twice-weekly oral dosing schedule) is recorded as 800 mg. The Ki at HSP90 [7] was […]. Moreover, in the series on HSP90 [8], the EC50 was […].
In general, aqueous solubility refers to the concentration that dissolves in the medium under given conditions. As to `C=CCNc1c(O)cc2c(O)c1C[C@@H](C)C[C@H](OC)[C@H](O)[C@@H](C)/C=C(\C)[C@@H](OC(N)=O)[C@H](OC)/C=C\C=C(/C)C(=O)N2.Cl` [IPI-504], in series [2] (iv, in combination with docetaxel 75 mg/m^2 once every three weeks, phase Ib), the “maximum tolerated dose (MTD) and recommended phase II dose (RP2D)” value is on record as 450 mg/m^2. Besides, the “MTD from phase 1 trial” value in series [2] (monotherapy, intravenous infusion over 30 minutes) is listed as 225 mg/m^2. Also, in [2] (phase III trial, metastatic and/or unresectable GIST), the “on-treatment deaths, considered drug-related” value is recorded as “four”. For the same molecule, the aqueous solubility in series [3] was above 200 mg/mL.
On to `CN1CCC(NC(=O)c2cc(-c3c(O)cc(O)cc3Oc3ccc([N+](=O)[O-])cc3)on2)CC1` [NMS-E973], for which, in [9], the blood-brain barrier penetration result is reported as “ability to cross the blood-brain barrier” and the pharmacokinetic profile result is “favorable pharmacokinetic profile”. In series [10], the antitumor efficacy entry was “high antitumor efficacy”.
Consider `CC(C)NCCCn1c(Sc2cc3c(cc2I)OCO3)nc2c(N)ncnc21` [PU-H71], for which the MTD in series [2] (intravenous (iv) infusion) was 350-400 mg/m2. Also, the IC50 with HSP90 [11] was […].
As for `CC1(C)CC(=O)c2c(C(F)(F)F)nn(-c3ccc(C(N)=O)c(N[C@H]4CC[C@H](O)CC4)c3)c2C1` [SNX-2112], the “MHC-I surface expression on MC38 cells” value in the series with MC38 cells [1] (60 nM for each drug) is “induced MHC-I”.
Take `CC1(C)CC(=O)c2c(C(F)(F)F)nn(-c3ccc(C(N)=O)c(N[C@H]4CC[C@H](OC(=O)CN)CC4)c3)c2C1` [SNX-5422]: the “patients achieving stable disease for >8 cycles” value in series [12] is on record as 2 of 3. In addition, the MTD in [2] (oral, pancreatic NETs and nonfunctional gastrointestinal and pulmonary NETs) was 75 mg/m^2.
For `CC[C@@H](C)Nc1cc(C(=O)NC2CC3CCC(C2)N3c2ccc(C(=O)C3CC3)cn2)c(C)cc1C(N)=O` (stereo partly drawn) [XL888], in series [13] (100 mg/kg, SCID mice), the “growth inhibition of established xenografts” value is reported as 50%. In addition, the “increase in intratumoral HSP70 expression compared with controls” value in series [13] (15 days of treatment) is 8.6 fold.

B1: IFN-γ: cytokine, canonical stimulus of antigen presentation, comparator at 10 ng/mL (protein, UniProt P01580 23-155, looked up)
Interferon gamma: HGTVIESLESLNNYFNSSGIDVEEKSLFLDIWRNWQKDGDMKILQSQIISFYLRLFEVLKDNQAISNNISVIESHLITTFFSNSKAKKDAFMSIAKFEVNNPQVQRQAFNELIRVVHQLLPESSLRKRKRSRC
Consider B1, for which, in the series on MC38 cells [14], the “expression of downstream markers of IFN-γ signaling (Stat1, Stat3, pStat3, PD-L1)” value is recorded as “induced expression of downstream markers of IFN-γ signaling”.
